{"source": "patent US6870028B1", "about": "(priority 1995, dated 2005)", "key": {"human breast cancer MCF7": {"system": "human breast cancer MCF7", "assay": "in vitro cytotoxicity versus human breast cancer MCF7", "format": "cell-based", "method": "(§1) Coupling of the peptide A-B to amino acid moiety of C (5) was carried out in a similar way. [drawing 25] [drawing 26] [drawing 27] Testing of Compounds • 1. The cytotoxicity of compounds described herein have been tested as described in J. Immunol. Methods, 65, 55-63, 1983 and the results are provided in Table 4 below, wherein P388 refers to in vitro test versus murine leukaemia P388, U373 refers to in vitro human glioblastoma/astrocytoma U373, HEY refers to in vitro human ovarian carcinoma HEY, MCF7 refers to in vitro human breast cancer MCF7. • 2."}, "[1]": {"system": "human ovarian carcinoma HEY", "assay": "in vitro cytotoxicity versus human ovarian carcinoma HEY", "format": "cell-based", "method": "as §1"}, "[2]": {"system": "human glioblastoma/astrocytoma U373", "assay": "in vitro cytotoxicity versus human glioblastoma/astrocytoma U373", "format": "cell-based", "details": "for IC50: U373 MG", "method": "as §1"}, "murine leukaemia P388": {"system": "murine leukaemia P388", "assay": "in vitro cytotoxicity versus murine leukaemia P388", "format": "cell-based", "details": "Mus musculus", "method": "as §1"}, "[3]": {"system": "human mammary carcinoma MCF7 cells", "assay": "antimitotic activity, percentage of mitotic cells in chromosome spreads", "format": "cell-based", "details": "for IC50: Homo sapiens; for IC50 / antimitotic activity, in words: 20 h treatment", "method": "• 3. Compounds described herein were comparatively tested for their antimitotic activity against human mammary carcinoma MCF7 cells.\nMCF7 cells were grown as a monolayer in RPMI supplemented with 15% fetal calf serum and antibiotics at 37° C. in humidified 10% CO2. All compounds were dissolved in dimethyl sulfoxide except for vinblastine (a known drug) which was a 1 mg/ml solution in physiological saline. Exponentially growing MCF7 cells were treated with different drug concentrations for 20 h, prepared for chromosome spreads, and the percentage of mitotic cells determined by fluorescence microscopy. Hemiasterlin, Hemiasterlin A and modified compounds were very potent antimitotic agents, with IC50 values of 0.3 nM and 3 nM respectively."}, "MCF7 cells": {"system": "MCF7 cells", "assay": "morphology of mitotic spindles by indirect immunofluorescence (β-tubulin antibody, bisbenzimide)", "format": "cell-based, human", "description": "The effect of Hemiasterlin and Hemiasterlin A on the morphology of their mitotic spindles was examined by indirect immunofluorescence using a monoclonal antibody to β-tubulin and the distribution of their chromosomes using the fluorescent DNA dye bisbenzimide."}, "P388 leukaemia cells": {"system": "P388 leukaemia cells", "assay": "in vivo P388 leukaemia model in mice"}, "[4]": {"details": "read-out: IC50 Values cell mitosis"}}, "note": "Read-outs that look alike come from different tables or passages of the source."}
{"compound": "CN[C@H](C(=O)N[C@H](C(=O)N(C)[C@H](/C=C(\\C)C(=O)N[C@@H](CCCNC(=N)N)C(=O)O)C(C)C)C(C)(C)C)C(C)(C)c1c[nH]c2ccccc12", "values": [{"measurement": "IC50", "setting": "human breast cancer MCF7", "value": 6800, "unit": "ng/mL"}, {"measurement": "IC50", "setting": "[1]", "value": 190, "unit": "ng/mL"}, {"measurement": "IC50", "setting": "[2]", "value": 270, "unit": "ng/mL"}, {"measurement": "IC50", "setting": "murine leukaemia P388", "value": 7.3, "unit": "ng/mL"}]}
{"compound": "CN[C@H](C(=O)N[C@H](C(=O)N(C)[C@H](/C=C(\\C)C(=O)OC)C(C)C)C(C)(C)C)C(C)(C)c1cn(C)c2ccccc12", "values": [{"measurement": "IC50", "setting": "human breast cancer MCF7", "value": 5.4, "unit": "ng/mL"}, {"measurement": "IC50", "setting": "[3]; [4]", "value": 0.216, "unit": "ng/mL"}]}
{"compound": "CN[C@H](C(=O)N[C@H](C(=O)N(C)[C@H](CC(C)C(=O)O)C(C)C)C(C)(C)C)C(C)(C)c1cn(C)c2ccccc12", "note": "(stereo partly shown)", "values": [{"measurement": "IC50", "setting": "[3]; [4]", "value": 1.06, "unit": "ng/mL"}]}
{"compound": "CCOC(=O)/C(C)=C/[C@H](C(C)C)N(C)C(=O)[C@@H](NC(=O)[C@@H](NC)C(C)(C)c1cn(C)c2ccccc12)C(C)C", "values": [{"measurement": "IC50", "setting": "human breast cancer MCF7", "value": 100, "unit": "ng/mL"}]}
{"compound": "C=C1C[C@H](C)C(=O)N[C@@H](C)C(=O)N(C)[C@H](Cc2ccc(O)c(I)c2)C(=O)N[C@@H](C)C(=O)O[C@@H](C)C[C@@H](C)C1=O", "note": "[Compound 1, Geodiamolide G]", "values": [{"measurement": "IC50 Values HEY", "setting": "[1]", "value": 8600, "unit": "ng/mL"}, {"measurement": "IC50 Values U373", "setting": "[2]", "value": 7700, "unit": "ng/mL"}]}
{"compound": "CN[C@H](C(=O)N[C@H](C(=O)N(C)[C@H](/C=C(\\C)C(=O)O)C(C)C)C(C)(C)C)C(C)(C)c1c[nH]c2ccccc12", "note": "[Compound 2, Hemiasterlin A]", "values": [{"measurement": "IC50", "setting": "human breast cancer MCF7", "value": 1.54, "unit": "ng/mL"}, {"measurement": "lowest concentration causing maximal mitotic arrest", "setting": "[3]", "value": 10, "unit": "nM"}, {"measurement": "antimitotic activity, in words", "setting": "[3]", "value": "more potent than Taxol, Vinblastine and Nocodazole"}, {"measurement": "IC50", "setting": "[3]; [4]", "value": 1.02, "unit": "ng/mL"}, {"measurement": "IC50", "setting": "[3]; read-out: antimitotic IC50", "value": 3, "unit": "nM"}, {"measurement": "IC50", "setting": "[1]", "value": 7.6, "unit": "ng/mL"}, {"measurement": "mitotic spindle morphology", "setting": "MCF7 cells; at 2 nM", "value": "no completely normal spindles were seen"}, {"measurement": "effect on microtubules", "setting": "MCF7 cells; at 10 nM", "value": "caused microtubule depolymerisation in mitotic cells"}, {"measurement": "IC50", "setting": "[2]", "value": 1.5, "unit": "ng/mL"}, {"measurement": "IC50", "setting": "murine leukaemia P388", "value": 0.00171, "unit": "ng/mL"}]}
{"compound": "CN[C@H](C(=O)N[C@H](C(=O)N(C)[C@H](/C=C(\\C)C(=O)O)C(C)C)C(C)C)C(C)(C)c1c[nH]c2ccccc12", "note": "[Compound 3, Hemiasterlin B]", "values": [{"measurement": "IC50", "setting": "human breast cancer MCF7", "value": 15, "unit": "ng/mL"}, {"measurement": "IC50", "setting": "[3]; [4]", "value": 9.96, "unit": "ng/mL"}, {"measurement": "IC50", "setting": "[1]", "value": 16, "unit": "ng/mL"}, {"measurement": "IC50", "setting": "murine leukaemia P388", "value": 7, "unit": "ng/mL"}]}
{"compound": "CN[C@H](C(=O)N[C@H](C(=O)N(C)[C@H](/C=C(\\C)C(=O)O)C(C)C)C(C)(C)C)C(C)(C)c1cn(C)c2ccccc12", "note": "[Compound A, Hemiasterlin]", "values": [{"measurement": "IC50", "setting": "human breast cancer MCF7", "value": 0.158, "unit": "ng/mL"}, {"measurement": "in vivo tests, result in words", "setting": "P388 leukaemia cells; in vivo tests per NIH Publication No. 84-2635", "value": "cytotoxic"}, {"measurement": "long term survivors", "setting": "P388 leukaemia cells; mice injected with 1×10^6 P388 leukaemia cells, 5 daily doses of 0.45 μg", "value": "several long term survivors"}, {"measurement": "%TC", "setting": "P388 leukaemia cells; mice injected with 1×10^6 P388 leukaemia cells, 5 daily doses of 0.45 μg begun 24 hours after implantation", "value": 223, "unit": "%"}, {"measurement": "antimitotic activity, in words", "setting": "[3]", "value": "more potent than Taxol, Vinblastine and Nocodazole"}, {"measurement": "IC50", "setting": "[3]; [4]", "value": 0.158, "unit": "ng/mL"}, {"measurement": "IC50", "setting": "[3]; read-out: antimitotic IC50", "value": 0.3, "unit": "nM"}, {"measurement": "IC50", "setting": "[1]", "value": 1.4, "unit": "ng/mL"}, {"measurement": "IC50", "setting": "[2]", "value": 12, "unit": "ng/mL"}, {"measurement": "IC50", "setting": "murine leukaemia P388", "value": 0.0457, "unit": "ng/mL"}]}
{"compound": "COC(=O)Nc1nc2ccc(C(=O)c3cccs3)cc2[nH]1", "note": "[Nocodazole]", "values": [{"measurement": "mitotic spindle morphology", "setting": "MCF7 cells; half-maximal concentrations", "value": "produced the same types of abnormal spindle as hemiasterlin A"}, {"measurement": "effect on microtubules", "setting": "MCF7 cells; high concentrations", "value": "microtubule depolymerisation in mitotic cells"}]}
{"compound": "CC(=O)O[C@H]1C(=O)[C@@]2(C)[C@H]([C@H](OC(=O)c3ccccc3)[C@]3(O)C[C@H](OC(=O)[C@H](O)[C@@H](NC(=O)c4ccccc4)c4ccccc4)C(C)=C1C3(C)C)[C@]1(OC(C)=O)CO[C@@H]1C[C@@H]2O", "note": "[Taxol]", "values": [{"measurement": "mitotic spindle morphology", "setting": "MCF7 cells; half-maximal concentrations", "value": "produced the same types of abnormal spindle as hemiasterlin A"}, {"measurement": "effect on microtubules", "setting": "MCF7 cells; high concentrations", "value": "causing bundling of cytoplasmic microtubules in interphase cells and very dense multiple asters in mitotic cells"}]}
{"compound": "CC[C@]1(O)C[C@@H]2CN(CCc3c([nH]c4ccccc34)[C@@](C(=O)OC)(c3cc4c(cc3OC)N(C)[C@H]3[C@@](O)(C(=O)OC)[C@H](OC(C)=O)[C@]5(CC)C=CCN6CC[C@]43[C@@H]65)C2)C1", "note": "[Vinblastine]", "values": [{"measurement": "mitotic spindle morphology", "setting": "MCF7 cells; half-maximal concentrations", "value": "produced the same types of abnormal spindle as hemiasterlin A"}, {"measurement": "effect on microtubules", "setting": "MCF7 cells; high concentrations", "value": "microtubule depolymerisation in mitotic cells"}]}
